Data reported in ChEMBL document CHEMBL3507680, “University of Dundee, Gates Library screen for HepG2 cell viability”.

Test: Human HepG2 cell viability assay in 384 well format
Format: toxicity, cell-based
Parameters: dose 125 nL, time 70.5 hour; cytotoxicity at 70.5 h: concentration not given beside the values
Conditions: HepG2 cells, read-out: Inhibition

| Structure (SMILES) | cytotoxicity at 70.5 h [%] |
| --- | --- |
| OC[C@@H]1[C@H]2CN(c3ccccn3)CCN2C[C@H]1c1ccccc1 | -1.78 |
| Cc1ncsc1CN1CC[C@H]2OCC[C@@]2(C(=O)NCC2CC2)C1 | -3.48 |
| COc1ncccc1CNC(=O)c1c(C)oc(C)c1C | -8.16 |
| Cc1nn(C)c(=O)c2nn(-c3ccc(Cl)cc3)c(C)c12 | -1.68 |
| O=c1c2cnc(N3CCCCC3)nc2ccn1-c1ccccc1 | 19 |
| CN1CCCCC12Cc1ccccc1CN(C(=O)c1ccccc1)C2 (stereo unspecified) | -5.36 |
| Cc1nc2cc(OCc3nc(C(=O)NC(C)(CO)CO)co3)ccc2s1 | 6.62 |
| Cc1nccc(CC2COCCN(c3cnccn3)C2)n1 (stereo unspecified) | 22.7 |
| CC(C)(O)CSCCNCc1ccc(Cl)c2cccnc12 | 12.8 |
| O=c1[nH]cnc2c1CCN(S(=O)(=O)c1ccc(OC(F)(F)F)cc1)C2 | -9.4 |
| CCc1[nH]c2c(CNc3cncc(C(=O)N(C)C)n3)cc(F)cc2c1C | 4.01 |
| CC(C)N1CCC(c2n[nH]cc2-c2ccnc(N)c2)C1 (stereo unspecified) | 2.17 |
| Cn1c(C2CC2)nc2c1CCN(Cc1nc(Cc3ccccc3)no1)C2 | -12.9 |
| CCOC(=O)N[C@H]1C[C@@H](C(=O)NCc2cccc(Cl)c2)N(C)C1 | -20.9 |
| NC(=O)c1noc(Cn2ncc3ccccc3c2=O)n1 | 12.9 |
| O=C(NCc1ccco1)N1CCC(n2ccc(C(F)(F)F)n2)CC1 | -82.9 |
| Cc1cccnc1C(Cc1ccsc1)NCc1cnc(N(C)C)nc1 (stereo unspecified) | -8.31 |
| Oc1ccc(-c2c(-c3ccccc3)ncn2C2CCNC2)cc1 (stereo unspecified) | 6.28 |
| CO[C@H]1CN(Cc2ccc(C)o2)[C@@H]2CCCO[C@H]12 | 13.3 |

| Structure (SMILES) | cytotoxicity at 70.5 h [%] |
| --- | --- |
| Cc1ccccc1C1CCN(CCn2cc(-c3nccs3)nn2)C1 (stereo unspecified) | 49.5 |
| CC(=O)N1C[C@H]2CCCC(N3CCN(c4ncccn4)CC3)[C@H]2C1 (stereo partly specified) | 11.4 |
| Cc1nn(C)c(C)c1C(=O)N1CCN(C(=O)CCC2CCCCC2)CC1 | -13.4 |
| COc1ccc2c(c1)CC(C1CCOCC1)N(C(=O)c1ccn(C)n1)C2 (stereo unspecified) | 2.06 |
| CC(C(=O)NCc1ccnc(Oc2ccc(F)cc2)c1)n1cncn1 (stereo unspecified) | -9.56 |
| CC1CCN(C(=O)C2CCN(S(C)(=O)=O)CC2)c2ccccc21 (stereo unspecified) | -7.57 |
| CN[C@@H](CO)C(=O)NCc1cc2n(n1)CCCN(C1CCCCC1)C2 | -6.96 |
| COCCN(Cc1ccoc1)C(=O)c1c(F)cccc1Cl | -0.424 |
| COc1ccc(CNC(C)c2ccc(Cl)c(Cl)c2)c(OC)c1OC (stereo unspecified) | 5.68 |
| CC(=O)N1CCn2c(-c3ccccc3)cnc2C12CCNCC2 | -6.82 |
| O=C(NCCN1CCOCC1)c1ccnn1-c1ccc2ccccn12 | 3.81 |
| Cc1ccsc1-c1nccn1CCN1CCCOC1=O | -9.87 |
| O=C(CCc1cc(O)no1)N1CCCC(COc2ccc(F)cc2)C1 (stereo unspecified) | -3.78 |
| CC(c1ccon1)N(C)C(=O)C1CCN(C2CCCCC2)CC1 (stereo unspecified) | -1.12 |
| COc1ccc2cc(CN(C)C(C)c3nc(C4CC4)no3)ccc2c1 (stereo unspecified) | -0.253 |
| Cc1cc(CN2CCC(CNC(=O)c3cnc(C)nc3C)C2)[nH]n1 (stereo unspecified) | 7.59 |
| CNC(=O)c1sc2ccccc2c1CC1CCCN1Cc1cnc(C)s1 (stereo unspecified) | -10.5 |
| Cc1cnn(CC2CCCCN2C(=O)Cn2nc(C)c(Cl)c2C)c1 (stereo unspecified) | -4.01 |
| CCOC(=O)Cc1csc(NC(=O)c2ccc(=O)[nH]n2)n1 | -5.3 |

| Structure (SMILES) | cytotoxicity at 70.5 h [%] |
| --- | --- |
| Cc1ccc(CN2CCC3(CC2)C(=O)NCCN3CC2CC2)o1 | 8.52 |
| Cc1nc(CN2CCN(C(=O)CCc3cccc(Cl)c3)CC2)no1 | 13.5 |
| O=C(c1ccc[nH]1)N1CCCn2c(CN3CCCCC3)nnc2C1 | -5.4 |
| CN(C)CCN1CCOCC2(CCCN(C(=O)c3cccn3C)C2)C1 (stereo unspecified) | 0.0252 |
| Cc1cnn(C2CCCN(C(=O)c3ccc(NC4CC4)nc3)C2)c1 (stereo unspecified) | -13.3 |
| O=C(CC1CC1)N1CCC2(CCCN(c3ncccn3)C2)CC1 | -10.9 |
| O=C(NCC1CC1)C12CC(CN1Cc1nccs1)C2 | -9.03 |
| CC(NCc1ccsc1)c1ccc2c(c1)NC(=O)CO2 (stereo unspecified) | -13.9 |
| Cc1oncc1C(=O)NCC1(O)CCc2ccccc2C1 (stereo unspecified) | 0.91 |
| Cc1nc[nH]c1-c1nnc(SCC(=O)O)n1-c1ccccc1C(F)(F)F | -6.65 |
| Cc1csc(CN2CC[C@H]3C[C@H](c4noc(C)n4)O[C@@H]3C2)n1 | -9.71 |
| O=C(c1ccc(NC2CC2)nc1)N1CCC(Nc2cccnn2)CC1 | -8.71 |
| Cc1nc(C2CCCN(C(=O)c3ccncc3)C2)c2sccn12 (stereo unspecified) | 21.5 |
| COc1ccccc1OCCCN1CC=C(c2cnn(C)c2)CC1 | -2.62 |
| Cc1nn(C)c(N2CCOCC2)c1CNC1CCc2ccccc21 (stereo unspecified) | -7.04 |
| CCCOC(=O)N1CCCC(c2nnc(CN3CCOCC3)n2C)C1 (stereo unspecified) | 2.16 |
| O=C(c1ccco1)N1CCC2(CCOC2)C1 (stereo unspecified) | -13.3 |
| CC(C(=O)NCc1ccc(N2CCCCC2)nc1)n1cncn1 (stereo unspecified) | -3.82 |
